# Test results taken from PubChem BioAssay AID1996.
# Conditions: buffer; pH 7.4; 200.0 µM
row,SMILES,solubility kinetic
1,CC(C)C1Nc2ccc(C(=O)NC3CCCCC3)cc2NC1=O (centres undefined),> 47.3 µg/mL
2,OCC(O)CN1CCCC1 (centres undefined),21.4 µg/mL
3,COc1ccc(S(=O)(=O)N2c3ccc(F)cc3CCC2C)cc1 (centres undefined),3.2 µg/mL
4,CC(=O)Nc1ccc(NC(=O)C(C)OC(=O)C2CCC2)cc1 (centres undefined),> 45.7 µg/mL
5,COc1ccc(-c2nc3ncccc3o2)cc1NC(=O)c1ccco1,2.5 µg/mL
6,O=C(N[C@H]1CC1c1ccccc1)c1ccc([N+](=O)[O-])cc1 (some centres undefined),1.6 µg/mL
7,COc1ccc(NC(=O)C(=S)N2CCCC2)cc1,> 39.7 µg/mL
8,N#Cc1ccccc1NC(=O)CN1C(=O)NC2(CCCC2)C1=O,> 46.8 µg/mL
9,COc1nc(/C=C/N(C)C)c([N+](=O)[O-])c(OC)n1,17.2 µg/mL
10,Nc1ccccc1C(=O)NCc1ccc(F)cc1,> 36.6 µg/mL
11,S=C(NCc1ccco1)N1CCC(c2nc3ccccc3o2)CC1,11.3 µg/mL
12,O=C(c1cc(-c2ccc3c(c2)OCO3)on1)N1CCCCC1,5.7 µg/mL
13,O=C(NCc1ccccc1Cl)C1CCN(C(=O)c2ccco2)CC1,> 52 µg/mL
14,COC(=O)CSc1nc(NC(C)(C)C)nc(N(C)C)n1,38.7 µg/mL
15,COc1ccccc1CNC(=O)c1cc(C)nc2ccccc12,41.8 µg/mL
16,COc1cccc(COc2ncnc3sccc23)c1,37.2 µg/mL
17,CCC(C)NC(=O)Cn1c(=O)sc2ccccc21 (centres undefined),33.6 µg/mL
18,COc1ccc(CN(C)Cc2c(O)ccc3ccccc23)cc1,16.7 µg/mL
19,COc1ccccc1Nc1nc(N)nc(CN2CCC(C)CC2)n1,> 49.3 µg/mL
20,CCC1(CC)Cc2ccccc2C(=O)N1,> 30.5 µg/mL
21,Cc1cc(Nc2ccccc2Cl)nc(-c2ccccc2O)n1,1.3 µg/mL
22,N#Cc1ccc(OCC(=O)OCC(=O)c2ccccc2)cc1,> 44.3 µg/mL
23,COc1ccc(NC(=O)c2scc(S(=O)(=O)C(C)C)c2N)cc1,45.5 µg/mL
24,Cc1ccc(S(=O)(=O)CCSc2nccn2C)cc1,> 44.5 µg/mL

row,SMILES,solubility kinetic
1,COC(=O)c1ccsc1NC(=O)CCc1ccccc1,9.6 µg/mL
2,Cn1c(N)c(C(=O)COC(=O)COc2ccc(Cl)cc2Cl)c(=O)n(C)c1=O,4.7 µg/mL
3,Fc1ccccc1CNc1ncnc2sccc12,9.9 µg/mL
4,COc1ccccc1NS(=O)(=O)c1cccc(NC(=O)c2cncc(Br)c2)c1,6.4 µg/mL
5,O=C(c1cc2cc(F)ccc2[nH]1)N1CCC(Cc2ccccc2)CC1,1.3 µg/mL
6,CC(C)Nc1nc(N)c(C(=O)C23CC4CC(CC(C4)C2)C3)s1,0.3 µg/mL
7,CC(=O)c1cn(CC(=O)Nc2ccc(C)c(C)c2)c2ccccc12,< 0.3 µg/mL
8,O=C(c1ccccc1)C1CCN(C(=O)c2ccco2)CC1,41.6 µg/mL
9,COCc1nc2oc3ccc(F)cc3c(=O)c2cc1C(=O)OC,10.4 µg/mL
10,NC(=O)COC(=O)c1ccc(-c2ccccc2)cc1,19.1 µg/mL
11,Cc1ccc(S(=O)(=O)NC(=O)Nc2ccc(C)cn2)cc1,> 45.8 µg/mL
12,CC(C)c1ccc(NC(=O)N2CCOCC2)cc1,> 37.2 µg/mL
13,CC(=O)c1ccc(N/C=C/C(=O)c2ccc(Br)cc2)cc1,0.8 µg/mL
14,CC1CC1C(=O)OCC(=O)Nc1ccc(S(=O)(=O)N2CCOCC2)cc1 (centres undefined),> 57.4 µg/mL
15,O=C(COC(=O)c1cnccn1)Nc1cccc(F)c1,> 41.3 µg/mL
16,CC(C)c1ccc2nc(N)sc2c1,28.3 µg/mL
17,CC(C)(C)c1ccc(Oc2ccc(NC(=O)c3ccco3)cn2)cc1,< 0.4 µg/mL
18,O=C(c1cccc(Cl)c1)N1CCC(c2nc3ccccc3[nH]2)CC1,42.6 µg/mL
19,C/C(=N/OC(=O)CC(C)C)c1cc(-c2ccc(Cl)cc2)no1,< 0.3 µg/mL
20,COc1ccccc1CNc1ncccn1.O=C(O)C(=O)O,34.4 µg/mL
21,COc1ccccc1NC(=O)COC(=O)c1ccc2ccccc2n1,13.1 µg/mL
22,CC(=O)Nc1ccccc1C(=O)C(=O)Nc1ccc(F)c(Cl)c1,2.4 µg/mL
23,CCN1CCN(Cc2c3ccccc3cc3ccccc23)CC1,27.9 µg/mL
24,O=C(Nc1cccc(S(=O)(=O)N2CCCC2)c1)c1ccc(Cl)nc1,15.6 µg/mL

row,SMILES,solubility kinetic
1,CCN(Cc1ccccc1)S(=O)(=O)c1ccc(F)cc1,15.6 µg/mL
2,COc1ccc(N2CCN(S(=O)(=O)c3cn(C)c(=O)n(C)c3=O)CC2)cc1,17.9 µg/mL
3,Cc1cc(C)cc(NC(=O)Cn2cc(C=O)c3ccccc32)c1,< 0.3 µg/mL
4,CCOn1c(=O)c(-c2ccc(C)cc2)[n+]([O-])c2ccccc21,33.5 µg/mL
5,COc1ccc(F)cc1COc1nc(C)nc2ccccc12,28.3 µg/mL
6,COc1cccc(N2CC(O)Cn3c2nc2c3c(=O)[nH]c(=O)n2C)c1 (centres undefined),> 51.5 µg/mL
7,O=C(NCCCO)c1c(O)c2cccc3c2n(c1=O)CCC3,> 45.3 µg/mL
8,CCC(Oc1ccccc1F)C(=O)Nc1ccc2c(c1)n(C)c(=O)n2C (centres undefined),49 µg/mL
9,Cc1ccc(C(=O)O)cc1NS(=O)(=O)c1ccc2c(c1)oc(=O)n2C,44.8 µg/mL
10,CCc1cc(C(=O)NC(C)C2CCCO2)cs1 (centres undefined),> 38 µg/mL
11,Cc1ncc([N+](=O)[O-])n1Cc1ccc(Cl)cc1,34.7 µg/mL
12,COc1ccc2c(CC(=O)OCc3nc4ccsc4c(=O)[nH]3)coc2c1,32.2 µg/mL
13,CC(NC(=O)COC(=O)CCC(=O)c1ccc(F)cc1)c1ccccc1 (centres undefined),> 53.6 µg/mL
14,N#C/C(=C(/O)c1ccco1)c1nc2ccccc2s1,> 40.2 µg/mL
15,CCOC(=O)/C(=C/Nc1ccc(F)c(F)c1)[N+](=O)[O-],> 40.8 µg/mL
16,Cc1cc(NC(=O)c2c(C)noc2C)no1,> 33.2 µg/mL
17,O=C(Nc1ccc(F)cc1)c1csc(Cc2ccccc2)n1,1.3 µg/mL
18,O=S(=O)(c1ccccc1)N1CN(c2ccc(F)cc2F)c2nc3ccccc3nc21,3.8 µg/mL
19,Cc1cccc(C(=O)OCC(=O)N2CCN(C(=O)c3ccco3)CC2)c1O,38.8 µg/mL
20,CCOc1ccc(N(C)Cc2cc(=O)oc3ccc(OC)cc23)cc1,8.1 µg/mL
21,CCCCCCNC1=NCCS1,22.9 µg/mL
22,Oc1c(Cl)cc(Cl)cc1C1Nc2ccccc2-n2cccc21 (centres undefined),< 0.4 µg/mL
23,CCOc1ncnc2c1sc1nc(C)cc(C)c12,< 0.2 µg/mL
24,CC(=O)c1cccc(S(=O)(=O)NCCC(=O)O)c1,25.4 µg/mL

row,SMILES,solubility kinetic
1,COc1ccc(CCN2C(=O)CSC2c2ccc(F)cc2)cc1 (centres undefined),34.4 µg/mL
2,CCC(C)c1ccc(NC(=O)COC(=O)CCNS(=O)(=O)c2cccs2)cc1 (centres undefined),21.2 µg/mL
3,CC(C)(C)C(=O)Cn1c(NCCCl)nc2ccccc21.Cl,> 49.5 µg/mL
4,CC(=O)c1c(C)n(-c2cccc(Cl)c2)c2ccc(O)cc12,< 0.6 µg/mL
5,NC(=O)NC(=O)COC(=O)c1sc2ccccc2c1Cl,1.2 µg/mL
6,COc1ccc(Nc2nccc3c2ncn3C)cc1,> 38.1 µg/mL
7,CCOc1ccc2oc(C(=O)OCC(=O)NC3CC3)c(C)c2c1,1.5 µg/mL
8,O=C(NCCCN1CCCC1)Nc1ccc(F)cc1,35.2 µg/mL
9,CN(C)C(=O)c1ccc(=O)n(Cc2ccc(Cl)cc2Cl)c1,> 48.8 µg/mL
10,C=CCOc1ccc(C=Nc2ccc(OC)cc2)c(O)c1,6.5 µg/mL
11,Cc1cc(C(=O)OCC(=O)NCc2ccccc2Cl)c(C)o1,2.2 µg/mL
12,CCOC(=O)N1CCN(C(=O)CCc2ccc(S(=O)(=O)NCC(C)C)cc2)CC1,59.6 µg/mL
13,Cc1ccc(OCC(=O)N2c3ccccc3CC2C)c([N+](=O)[O-])n1 (centres undefined),21.3 µg/mL
14,Nc1nc(NCC(=O)O)nc(NC2CCCCC2)c1[N+](=O)[O-],> 46.5 µg/mL
15,COc1cc2c(cc1OC)CN(C(=S)Nc1ccc(Cl)cc1)CC2,< 0.4 µg/mL
16,CCOC(=O)/C=C1\SCC(=O)N1CC(=O)Nc1cc(S(=O)(=O)N(C)C)ccc1C,26.2 µg/mL
17,COc1ccc(C)cc1NC(=O)CN1C(=O)C2CC=CCC2C1=O (centres undefined),> 49.3 µg/mL
18,O=C(CN1C(=O)NC2(CCCC2)C1=O)Nc1nc(-c2ccccc2)cs1,1.7 µg/mL
19,CN(C)c1cc[n+](CC(=O)Nc2ccccc2C(F)(F)F)cc1.[Cl-],> 54 µg/mL
20,CN=C(c1ccco1)n1c(=S)nc(-c2ccco2)n(C)c1=S,39.6 µg/mL
21,O=C(COC(=O)C1CC1)NCc1ccccc1,> 35 µg/mL
22,CC1(c2ccccc2Br)NC(=O)N(CC(=O)N2CCc3ccccc3C2)C1=O (centres undefined),8.1 µg/mL
23,O=C(NC(=S)NCc1ccccc1)c1ccc(Br)cc1,< 0.4 µg/mL
24,CCOc1cccc(N2C(=O)/C(=C/c3ccco3)C(=O)NC2=S)c1,12.3 µg/mL

row,SMILES,solubility kinetic
1,CC1=C(C(=O)OC2CCCC(C)C2)C(c2ccccc2)NC(=O)N1 (centres undefined),4.3 µg/mL
2,Cc1csc(NC(=O)CCCNC(=O)c2ccc(Cl)cc2)n1,10.2 µg/mL
3,CC1(C)Cc2ccccc2C(/C(C#N)=N/O)=N1,> 34.1 µg/mL
4,O=C(CCc1ccccc1)Nc1nc2c(F)cc(F)cc2s1,4 µg/mL
5,CCOC(=O)Cc1csc(NC(=O)CN2CCN(c3ccccc3)CC2)n1,44.6 µg/mL
6,CC(OC(=O)COc1ccccc1)C(=O)NC1CCCC1 (centres undefined),> 43.7 µg/mL
7,CCOC(=O)C1=C(COC(=O)c2ccco2)NC(=O)NC1CC (centres undefined),> 48.3 µg/mL
8,COCc1cc(=O)[nH]c(Cc2c(Cl)cccc2Cl)n1,1.7 µg/mL
9,N#Cc1c(C(F)(F)F)cc(-c2cccs2)nc1SCC(=O)O,46.1 µg/mL
10,Cc1cc(C)c(S(=O)(=O)NCC(=O)NCc2ccco2)c(C)c1,44.2 µg/mL
11,NS(=O)(=O)c1cccc(NC(=O)CSc2nnc(C3CC3)n2-c2ccccc2)c1,> 64.4 µg/mL
12,CCN1CCc2c(OCC(=O)N3CCCc4ccccc43)cccc2C1=O,> 54.7 µg/mL
13,O=C1CCCN1CC(O)CS(=O)(=O)Cc1ccccc1 (centres undefined),> 44.6 µg/mL
14,COc1cccc(CNc2nccs2)c1O,> 35.4 µg/mL
15,CN1CCN(CC(=O)Nc2ccccc2Oc2ccccc2)CC1,> 48.8 µg/mL
16,CC(C)Cn1c(=O)c2c(nc3n2CCS3)n(C)c1=O,> 42.1 µg/mL
17,C[C@H](NC(=O)C(c1ccccc1)c1ccccc1)c1ccccc1,8.5 µg/mL
18,COc1ccccc1OC(C)C(=O)N1CC(=O)Nc2ccccc21 (centres undefined),> 49 µg/mL
19,O=c1[nH]c2ccc(S(=O)(=O)N3CCN(c4ccc(F)cc4)CC3)cc2o1,5.7 µg/mL
20,Nc1ccc(S(=O)(=O)NC2=NCCCCC2)cc1,> 40.1 µg/mL
21,COc1ccc(NS(=O)(=O)c2ccc(-c3ccccn3)s2)cc1,0.8 µg/mL
22,O=C(CSC(=S)N1CCCCC1)c1c(F)cccc1F,4 µg/mL
23,COC(=O)c1cc(CSc2ncnc3sccc23)oc1C,4.3 µg/mL
